Measured values as given in article PMC12257073 (Cancer Research Communications, 2025).
Several values for one entry are separate records, joined by “and”; a condition that tells them apart may be missing. Identical values can stand only once. Like-named read-outs stand apart in the source and are kept apart here.

Assays:
[1] = test system: newly diagnosed AML with mutations in TP53 and/or complex karyotype
Procedure: Dose-limiting toxicities (DLT) were evaluated to establish the dose brought forward for an expansion cohort (phase 2).
The primary endpoint was achievement of CR within six cycles of therapy. Secondary endpoints included toxicity, duration of response, OS, and the proportion of eligible patients who effectively transitioned to allogeneic stem cell transplantation. Exploratory endpoints included pharmacokinetics (PK), correlative genetic, and biochemical data; correlations between morphologic remission, spectral flow cytometry, and mutational remission; and duration of remission or survival. […] Adverse events (AE) were graded according to the NCI Common Terminology Criteria for Adverse Events version 4.0 ([27]).
The phase 1b portion of the study used a standard 3 + 3 design with dose-escalation based on DLT. […] In the first stage, if four or more of 12 patients achieved CR, then an additional 21 patients would be enrolled for a total of 33 patients. At the end of the study, if 12 or more of all 33 patients achieved CR, then the null hypothesis would be rejected.

TP53 = TP53 variant allele frequency by serial targeted next-generation sequencing; assay type: in vivo, human
Procedure: Mutations in germline and serial bone marrow or blood samples were determined by targeted next-generation sequencing (NGS). NGS aligned read files are available in the NCBI’s Sequence Read Archive under accession PRJNA1236309. See Supplementary Methods for details.
Genomic DNA was isolated from cryopreserved cells with QIAmp DNA Mini Kit (Qiagen) and fragmented using ME220 Focused-ultrasonicator (Covaris; SCR_019818). Libraries were generated using xGen™ DNA Lib Prep MC UNI kit and target capture was done using xGen AML Cancer Hybridization Panel in conjunction with a 3 gene spike-in pool for ZRSR2, AXL, and ASXL2 (Integrated DNA Technologies). DNA library preparations were performed according to the manufacturer’s instructions and sequenced on an Illumina Novaseq (OSUCCC Genomics Shared Resource) (SCR_016387). Sequenced reads were aligned to the GRCh38 genome build using the Burrows-Wheeler Aligner (BWA) (SCR_010910). Picard Tools was used to perform UMI-consensus calling on the aligned reads. The Genome Analysis Toolkit (GATK) (SCR_001876) was used to realign insertions and deletions in the aligned reads and to perform base quality score recalibration for those realigned regions. GATK’s MuTect2 (SCR_026692) was used to perform variant calling. After variant calling, variants were annotated using SnpEff (SCR_005191) and vcfanno (SCR_024372) along with the dbsnp (SCR_002338), COSMIC (SCR_002260), and gnomad variant databases (SCR_014964). The Mucor3 algorithm was used as the baseline for integrative mutation assessment. Visual inspection of all variants was carried out using Integrative Genomics Viewer v.2.8 (Broad Institute).

[2] = Treatment duration and reasons off treatment
[3] = TP53-mutated patients, TP-0903 + decitabine, n = 20
[4] = group 1, 37 mg TP-0903 + decitabine, 15 patients
[5] = group 1, TP-0903 37 mg/day + decitabine, n = 15
[6] = group 2, 25 mg TP-0903 + decitabine, 12 patients
[7] = group 2, TP-0903 25 mg/day + decitabine, n = 12
[8] = overall, TP-0903 + decitabine, n = 27

CN1CCN(Cc2ccc(Nc3ncc(Cl)c(Nc4ccccc4S(=O)(=O)N(C)C)n3)cc2)CC1.O=C(O)C(O)C(O)C(=O)O.O=C(O)C(O)C(O)C(=O)O [TP-0903, 2-(5-chloro-2-(4-((4-methylpiperazin-1-yl)methyl)phenylamino)pyrimidin-4-yl)amino-N,N-dimethylbenzene-1-sulfonamide di-tartrate salt]
Best response by 6 cycles: CR [1, 3]: 5 (25) no. (%) | Best response by 6 cycles: CRh [1, 3]: 4 (20) no. (%) | Best response by 6 cycles: CRi [1, 3]: 0 (0) no. (%) | Best response by 6 cycles: MLFS [1, 3]: 2 (10) no. (%) | Best response by 6 cycles: NE (not evaluable) [1, 3]: 4 (20) no. (%) | Best response by 6 cycles: SD [1, 3]: 4 (20) no. (%) | Best response by 6 cycles: Treatment failure [1, 3]: 1 (5) no. (%) | Overall composite remission rate (CR/CRh/CRi) [1, 3]: 9 (45, 23.1–68.5) no. (%, 95% CI) | Overall response rate (CR/CRh/CRi/MLFS) [1, 3]: 11 (55, 31.5–76.9) no. (%, 95% CI) | CR in patients without a TP53 mutation ([1]; five patients without a TP53 mutation, TP-0903 + decitabine): none of the five patients without a TP53 mutation achieved CR | Overall composite remission rate (CR/CRi/CRh) ([1]; group 1, 37 mg TP-0903 + decitabine, 5/15): 33.3% | CR rate within six cycles (primary endpoint) [1, 4]: 13.3% and 13% | CRh rate [1, 4]: 20% | MLFS rate [1, 4]: 7% | Stable disease (SD) rate [1, 4]: 33% | Treatment failure rate [1, 4]: 13% | Best response by 6 cycles: CR [1, 5]: 2 (13.3) no. (%) | Best response by 6 cycles: CRh [1, 5]: 3 (20) no. (%) | Best response by 6 cycles: CRi [1, 5]: 0 (0) no. (%) | Best response by 6 cycles: MLFS [1, 5]: 1 (6.7) no. (%) | Best response by 6 cycles: NE (not evaluable) [1, 5]: 2 (13.3) no. (%) | Best response by 6 cycles: SD [1, 5]: 5 (33.3) no. (%) | Best response by 6 cycles: Treatment failure [1, 5]: 2 (13.3) no. (%) | Overall composite remission rate (CR/CRh/CRi) [1, 5]: 5 (33.3, 11.8–61.6) no. (%, 95% CI) | Overall response rate (CR/CRh/CRi/MLFS) [1, 5]: 6 (40, 16.3–67.7) no. (%, 95% CI) | Overall composite remission rate (CR/CRi/CRh) ([1]; group 2, 25 mg TP-0903 + decitabine, 6/12): 50% | CR rate within six cycles (primary endpoint) [1, 6]: 25% | CRh rate [1, 6]: 8% | CRi rate [1, 6]: 17% | MLFS rate [1, 6]: 8% | Patients who stopped treatment within four and 5 days because of AEs [1, 6]: 17% | Stable disease (SD) rate [1, 6]: 25% | Best response by 6 cycles: CR [1, 7]: 3 (25) no. (%) | Best response by 6 cycles: CRh [1, 7]: 1 (8.3) no. (%) | Best response by 6 cycles: CRi [1, 7]: 2 (16.7) no. (%) | Best response by 6 cycles: MLFS [1, 7]: 1 (8.3) no. (%) | Best response by 6 cycles: NE (not evaluable) [1, 7]: 2 (16.7) no. (%) | Best response by 6 cycles: SD [1, 7]: 3 (25) no. (%) | Best response by 6 cycles: Treatment failure [1, 7]: 0 (0) no. (%) | Overall composite remission rate (CR/CRh/CRi) [1, 7]: 6 (50, 21.1–78) no. (%, 95% CI) | Overall response rate (CR/CRh/CRi/MLFS) [1, 7]: 7 (58.3, 27.7–84.8) no. (%, 95% CI) | Best response by 6 cycles: CR [1, 8]: 5 (18.5) no. (%) | Best response by 6 cycles: CRh [1, 8]: 4 (14.8) no. (%) | Best response by 6 cycles: CRi [1, 8]: 2 (7.4) no. (%) | Best response by 6 cycles: MLFS [1, 8]: 2 (7.4) no. (%) | Best response by 6 cycles: NE (not evaluable) [1, 8]: 4 (14.8) no. (%) | Best response by 6 cycles: SD [1, 8]: 8 (29.6) no. (%) | Best response by 6 cycles: Treatment failure [1, 8]: 2 (7.4) no. (%) | Overall composite remission rate (CR/CRh/CRi) [1, 8]: 11 (40.7, 22.4–61.2) no. (%, 95% CI) | Overall response rate (CR/CRh/CRi/MLFS) [1, 8]: 13 (48.2, 28.7–68.1) no. (%, 95% CI) | Overall composite remission rate (CR/CRi/CRh) ([1]; patients with a TP53 mutation (n = 20), irrespective of group, 9/20): 45% | True CR rate ([1]; patients with mutant TP53 who received 25 mg TP-0903 + decitabine, 3 of 9): 33.3% | Change in TP53 VAF (TP53; patients who achieved CR, n = 5, P < 0.01): significantly decreased | Change in TP53 VAF (TP53; patients who achieved CRh/CRi/MLFS, n = 7, P < 0.01): significantly decreased | Change in TP53 VAF (TP53; patients who had SD, treatment failure, or early death, n = 3): not significantly changed | Treatment discontinuation: AEs ([2]; group 1, 37 mg TP-0903 + decitabine): 13% | Off treatment for reason: Adverse event ([2]; group 1, 37 mg, N = 15): 2 (13.3) n (%) | Treatment discontinuation: AEs ([2]; group 2, 25 mg TP-0903 + decitabine): 17% | Off treatment for reason: Adverse event ([2]; group 2, 25 mg, N = 12): 2 (16.7) n (%) | Off treatment for reason: Adverse event ([2]; overall, N = 27): 4 (14.8) n (%)
